The source made the active and inactive calls. No rule for the calls is given here.
Target: NEDD8-conjugating enzyme Ubc12 (Homo sapiens) + NEDD8-activating enzyme E1 regulatory subunit (Homo sapiens) (UniProt P61081+Q13564)
Experiment: inhibitors of CUL1 neddylation, potency, dose response, biochemical, TR-FRET (AID 652247)
Conditions: in vitro CUL1 neddylation

NEDD8-conjugating enzyme Ubc12 (Homo sapiens) + NEDD8-activating enzyme E1 regulatory subunit (Homo sapiens), sequence (P61081 whole entry, looked up): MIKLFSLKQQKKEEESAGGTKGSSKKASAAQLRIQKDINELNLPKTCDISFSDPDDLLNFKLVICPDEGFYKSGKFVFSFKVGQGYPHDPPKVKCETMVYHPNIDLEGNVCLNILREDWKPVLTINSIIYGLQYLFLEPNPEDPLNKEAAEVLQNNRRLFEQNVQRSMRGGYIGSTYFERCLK
NEDD8-conjugating enzyme Ubc12 (Homo sapiens) + NEDD8-activating enzyme E1 regulatory subunit (Homo sapiens), sequence (Q13564 whole entry, looked up): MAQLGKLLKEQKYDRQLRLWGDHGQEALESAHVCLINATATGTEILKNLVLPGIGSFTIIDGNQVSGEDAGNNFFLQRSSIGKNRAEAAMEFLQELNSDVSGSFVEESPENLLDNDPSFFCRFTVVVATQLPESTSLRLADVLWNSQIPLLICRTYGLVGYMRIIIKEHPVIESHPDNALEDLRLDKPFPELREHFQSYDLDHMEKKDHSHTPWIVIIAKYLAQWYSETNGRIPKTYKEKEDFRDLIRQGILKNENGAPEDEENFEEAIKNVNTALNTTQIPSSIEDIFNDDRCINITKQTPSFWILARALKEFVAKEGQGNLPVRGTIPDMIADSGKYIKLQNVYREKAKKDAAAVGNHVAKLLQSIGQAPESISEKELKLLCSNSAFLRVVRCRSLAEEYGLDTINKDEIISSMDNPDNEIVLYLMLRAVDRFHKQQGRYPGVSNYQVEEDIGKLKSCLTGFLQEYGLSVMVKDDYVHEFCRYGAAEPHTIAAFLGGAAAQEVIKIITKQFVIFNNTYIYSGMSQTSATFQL

SMILES	IC50
COc1ccc(-c2cc(C(=O)N3CCN(c4ccccc4O)CC3)c3ccccc3n2)cc1OC	inactive
CCOCCCn1c(=NC(=O)c2cccnc2)c(C(=O)OCC)cc2c(=O)n3ccccc3nc21	inactive
CCOC(=O)C1=C(COCCN)NC(C)=C(C(=O)OC)C1c1ccccc1Cl (stereo not given)	inactive
Nc1c2c(=O)oc(-c3ccccc3)cc2nn1-c1ccccc1	inactive
COc1ccc(CC(=O)N/N=C\c2cc(Br)c(O)c(Br)c2)cc1	inactive
CCNC(=O)/C(C#N)=C/c1c(N2CCN(c3ccccc3)CC2)nc2ccccn2c1=O	inactive
O=C(O)c1ccc2c(=O)n3c(nc2c1)/C(=C/c1ccc(OC(F)F)cc1OC(F)F)CC3	inactive
N#Cc1ccc(/C=C2\CCn3c2nc2cc(C(=O)O)ccc2c3=O)cc1	14.5 µM
CCc1c(C)c2ccc(OC(C)C(=O)NC(Cc3c[nH]c4ccc(O)cc34)C(=O)O)c(C)c2oc1=O (stereo not given)	inactive
COC(=O)c1ccc(/C=C2\CCn3c2nc2cc(C(=O)O)ccc2c3=O)cc1	inactive
COc1ccc(-c2cc3nc(NCCN4CCCC4)n(C)c(=O)c3s2)cc1OC	inactive
C(=C\c1ccc2nncn2c1)/c1ccccc1	inactive
Cc1cccc(C)c1NC(=O)C(c1ccncc1)n1c(=O)c(-c2ccccc2)nc2ccccc21 (stereo not given)	inactive
Nc1ncnc2c1ncn2C1OC(COP(=O)(O)O)C(O)C1O (stereo not given)	17.4 µM
CN(C)CCn1c(SCc2ccccc2C#N)nc2c(sc3ccccc32)c1=O	inactive
Nc1nnc(-c2cc3ccccc3oc2=O)s1	> 100 µM (inactive)
Nc1cccc2c(=O)[nH][nH]c(=O)c12	inactive
COc1ccccc1/C=N/NC(=O)c1ccccc1NS(=O)(=O)c1ccc(C)cc1	inactive

SMILES	IC50
Nc1c(C(=O)Nc2ccccc2)c2nc3ccccc3nc2n1CCCN1CCOCC1	inactive
CC(=O)Nc1cc(-c2ccc(N3CCN(C)CC3)cc2)cn2c(-c3ccc(F)cc3)cnc12	inactive
O=C(O)c1ccc(/C=N/NC(=O)c2ccc(CN3c4cccc5cccc(c45)S3(=O)=O)cc2)cc1	inactive
O=c1[nH]c2ccccc2nc1-c1ccccc1	inactive
CN(C)c1ccc(/C=N/NC(=O)C2CC2c2ccccc2)cc1 (stereo not given)	inactive
CCOC(=O)c1cc2c(=O)n3ccccc3nc2n(CCOC)c1=NC(=O)c1ccncc1	inactive
C=CCNC(=S)N/N=C/c1ccc(N(CC)Cc2ccccc2)cc1	inactive
COc1ccc(OCC(=O)N/N=C/c2ccc(N(C)C)cc2)cc1	inactive
COc1ccc2cc3cc(C(=O)NCCc4ccc(OC)c(OC)c4)oc3nc2c1	19.7 µM
CN(C)CCNc1nc(-c2ccco2)c2c(c1C#N)CC(C)(C)OC2	inactive
c1cn2c(-c3ccoc3)cncc2n1	inactive
COc1ccc(-c2cc(C(=O)N(C)CC(=O)Nc3ccccc3Cl)c3ccccc3n2)cc1OC	inactive
O=C(CSc1cccc2cccnc12)Nc1cc(C(=O)O)cc(C(=O)O)c1	inactive
NC(=O)C1CCN(C(=O)c2ccc3nc(-c4ccccc4)c(-c4ccccc4)nc3c2)CC1	inactive
CN(C)c1ccc(-c2nc3cnccn3c2Nc2ccc3c(c2)OCCO3)cc1	inactive
COCCCNC(=O)/C(C#N)=C/c1c(N2CCN(c3ccccc3)CC2)nc2ccccn2c1=O	inactive
Cc1ccc(Cn2c(=N)c(C(=O)NCCN3CCOCC3)cc3c(=O)n4ccccc4nc32)cc1	17.5 µM
Cc1cccn2c(=O)c3cc(C(=O)N4CCCCC4C)sc3nc12 (stereo not given)	inactive

The next lines start with the values.

IC50	SMILES
inactive	COC(=O)C1C(O)=C(C=Nc2cccc3ccccc23)C(=O)CC1(C)C (stereo not given)
> 100 µM (inactive)	CCN(CC)CCOC(=O)c1ccc(N/C=C(/C#N)c2nc(-c3ccc(OC)cc3)cs2)cc1
inactive	CCOc1ccccc1NC(=O)CN1c2cccc3cccc(c23)S1(=O)=O
11.7 µM	CC(=O)Nc1nc(C)c(-c2csc(Nc3ccc(S(N)(=O)=O)cc3)n2)s1
inactive	CCCCN(C)C(=O)c1cc2cc3ccc(OC)cc3nc2o1
inactive	COc1cc2c(cc1OC)-c1cc(NCc3ccccn3)nc(=O)n1CC2
inactive	Cc1ccc2c(c1)COc1c3ccc(C(=O)NCC4CC4)cc3nn1-2
inactive	Cn1nc(/C=C/c2ccccc2)ccc1=O
inactive	COc1cc(OC)cc(-c2oc3cccnc3c2C#CCCO)c1
inactive	Cn1ncc2cc3c(Nc4ccc(Cl)cc4)cccc3nc21
> 100 µM (inactive)	COCc1cc(C)nc2sc(C(=O)Nc3ccc(OC)cc3)c(N)c12
inactive	CCOC(=O)Cn1nc(/C=C/c2ccccc2)ccc1=O
inactive	COc1cc(-c2cc(C(=O)N3CCCCCC3)c3ccccc3n2)cc(OC)c1OC
> 100 µM (inactive)	O=C(Nc1cc(C(=O)Nc2ccccc2C(=O)O)cc(C(=O)Nc2ccccc2C(=O)O)c1)c1ccccc1
inactive	COC(=O)CSc1ccc2c(N)c(C(=O)OC)sc2c1
6.88 µM	COc1ccc(-c2cc3ccc(OCc4nn[nH]n4)cc3oc2=O)cc1OC
inactive	COc1ccc(OC)c(C=NNC(=O)c2ccccc2NS(=O)(=O)c2cccs2)c1
> 100 µM (inactive)	Cc1ccc(C(C(=O)NCC2CCCO2)N(C(=O)c2snc(C(N)=O)c2N)c2ccc(F)cc2)o1 (stereo not given)
inactive	NNC(=O)c1ccc(CSc2cccc3cccnc23)cc1
13.9 µM	O=C(Nc1cccnc1Cl)c1cc(-c2cccc(O)c2)on1

IC50	SMILES
inactive	O=C(NCCc1ccc(Cl)cc1Cl)C1=CC=CN2CCS(=O)(=O)N=C12
inactive	CCOc1ccc(C(=O)N/N=C/c2ccc(-c3ccc(S(=O)(=O)Nc4ncccn4)cc3)o2)cc1
inactive	c1ccc(-c2oc3ncnc(NCCCN4CCOCC4)c3c2-c2ccccc2)cc1
inactive	COc1ccc(-c2cn3cccnc3n2)cc1NC(=O)c1cccs1
inactive	CC1CCN(C(=O)CN2c3cccc4cccc(c34)S2(=O)=O)CC1
inactive	CCN(/N=C/c1ccc(N(C)C)cc1)c1nc2ccccc2[nH]1
10.4 µM	COc1ccc(Cl)cc1NC(=O)Cn1nnc(C(=O)NCc2ccc3c(c2)OCO3)c1N
inactive	S=c1[nH]c2nc(Cl)c(Cl)nc2[nH]1
inactive	Cc1cc(=O)oc2cc(NC(=O)CN3C(=O)NC(C)(c4ccccc4)C3=O)ccc12 (stereo not given)
inactive	Cc1cc(NS(=O)(=O)c2ccc(NS(=O)(=O)c3ccc(Br)cc3)cc2)no1
inactive	CCN(CC)CCNC(=O)Cn1c(-c2ccccn2)nc2ccccc21
inactive	CC(=O)N1N=C2/C(=C/c3ccccc3)CCCC2C1c1ccccc1 (stereo not given)
inactive	CCCc1c(O)c2ccccc2[nH]c1=O
19.4 µM	COc1cc(F)ccc1-c1cc(C(=O)Nc2ccc(NC(C)=O)cc2)[nH]n1
inactive	Cc1ccc(-c2cc(C(=O)NCCCN3CCOCC3)c3ccccc3n2)cc1
inactive	COCCNC(=O)COC(=O)c1cc(-c2ccc(OC)cc2)nc2ccccc12
inactive	C=CCNC(=O)c1ccc2c3n(nc2c1)-c1ccc(C)cc1CO3
11.9 µM	CC(=O)OCCc1c2ccccc2c(CCCN(C)C)c2ccccc12
inactive	COc1ccc(CCNc2oc(-c3ccco3)nc2C#N)cc1

— PubChem BioAssay AID652247 (Sanford-Burnham Center for Chemical Genomics, 2013)
